# Laboratory results from patent publication US20170008888A1 (KYORIN PHARMACEUTICAL CO., LTD., priority 2014, published 2017).
# Assays:
# [1] = target: T1, recombinant human ERK5 catalytic domain (Homo sapiens, UniProt Q13164); experiment: Recombinant human ERK5 radiometric (HotSpot) assay; format: biochemical; conditions: 10 μM ATP, 20 μM myelin basic protein substrate; read-out: rhERK5 IC50
# T1 construct: Recombinant human ERK5 catalytic domain radiometric assays; purchased Reaction Biology, Corp (Malvern, Pa.), which ran the assay as a service
# T1 sequence (Q13164 55-347 limits assumed): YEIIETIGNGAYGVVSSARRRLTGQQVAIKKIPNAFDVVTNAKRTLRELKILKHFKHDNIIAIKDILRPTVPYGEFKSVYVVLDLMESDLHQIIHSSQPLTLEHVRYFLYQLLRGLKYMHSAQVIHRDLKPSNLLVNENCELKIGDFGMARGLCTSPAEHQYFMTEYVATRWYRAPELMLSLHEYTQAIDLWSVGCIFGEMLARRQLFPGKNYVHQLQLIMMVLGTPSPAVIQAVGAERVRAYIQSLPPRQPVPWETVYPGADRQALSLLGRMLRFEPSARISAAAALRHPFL
# Procedure, shortened: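 Radiometric filter-binding HotSpot assay using [γ-33P]-ATP tracer with 10 μM cold ATP and 20 μM myelin basic protein substrate. Compounds tested in 10-point, ⅓-fold serial dilution from 20 μM; […].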
# AMPKa1 or AMPKa2 = experiment: Probe-based (AX9989) kinase profiling in Jurkat lysate: AMPKa1 or AMPKa2; format: binding
# Procedure, shortened: (§1)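 Gel-filtered Jurkat lysate (HEPES pH 7.5, 20 mM MnCl2, 5 mg/ml) was pre-incubated 15 min with compound at room temperature, then labelled with 5 μM acyl-phosphate ATP probe AX9989. Tryptic probe-labelled active-site peptides were streptavidin-captured and quantified by LC/MS. Percent inhibition reflected the decrease in labelled-peptide intensity versus no compound.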
# AurA = target: T2, AurA (Homo sapiens, UniProt O14965); experiment: Probe-based (AX9989) kinase profiling in Jurkat lysate: AurA; format: binding; conditions: read-out: AurA Inhibition % at indicated screening concentration; for inhibition at 1 µM: screening concentration 1 μM
# T2 construct: screened for activity against several kinases in Jurkat cells; endogenous in cells; host or cells: Jurkat cell lysate
# T2 sequence (O14965 1-403): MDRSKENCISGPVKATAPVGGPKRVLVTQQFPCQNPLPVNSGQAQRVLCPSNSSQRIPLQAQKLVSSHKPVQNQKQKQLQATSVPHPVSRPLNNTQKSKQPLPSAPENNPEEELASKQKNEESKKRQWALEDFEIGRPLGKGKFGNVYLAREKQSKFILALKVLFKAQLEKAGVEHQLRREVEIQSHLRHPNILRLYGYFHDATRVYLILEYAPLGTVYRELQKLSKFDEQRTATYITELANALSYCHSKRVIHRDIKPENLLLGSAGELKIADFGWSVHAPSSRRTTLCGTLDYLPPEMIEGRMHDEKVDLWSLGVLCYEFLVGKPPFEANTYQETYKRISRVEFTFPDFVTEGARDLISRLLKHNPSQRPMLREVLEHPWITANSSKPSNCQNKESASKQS
# Procedure, shortened: as §1
# AurB or AurC = experiment: Probe-based (AX9989) kinase profiling in Jurkat lysate: AurB or AurC; format: binding
# Procedure, shortened: as §1
# [2] = target: T3, BRD4 bromodomain domain I [BRD4(1)] (Homo sapiens, UniProt O60885); experiment: BRD4 bromodomain domain 1 inhibition assay (TR-FRET); format: binding; conditions: for inhibition at 10 µM: screening concentration 10 μM
# T3 construct: BRD4 bromodomain domain I [BRD4(1)]; purchased Cayman Chemicals
# Procedure, shortened: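 0.5% DMSO, in triplicate, using Cayman BRD4(1) TR-FRET protocol with slight modification. 670/620 nm ratio normalized to 10 μM JQ1, with DMSO control set as 0% inhibition.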
# JAK1 = target: T4, JAK1 (Homo sapiens, UniProt P23458); experiment: Probe-based (AX9989) kinase profiling in Jurkat lysate: JAK1; format: binding; conditions: read-out: JAK1 Inhibition % at indicated screening concentration; for inhibition at 1 µM: screening concentration 1 μM
# T4 construct: screened for activity against several kinases in Jurkat cells; endogenous in cells; host or cells: Jurkat cell lysate
# T4 sequence (P23458 whole entry): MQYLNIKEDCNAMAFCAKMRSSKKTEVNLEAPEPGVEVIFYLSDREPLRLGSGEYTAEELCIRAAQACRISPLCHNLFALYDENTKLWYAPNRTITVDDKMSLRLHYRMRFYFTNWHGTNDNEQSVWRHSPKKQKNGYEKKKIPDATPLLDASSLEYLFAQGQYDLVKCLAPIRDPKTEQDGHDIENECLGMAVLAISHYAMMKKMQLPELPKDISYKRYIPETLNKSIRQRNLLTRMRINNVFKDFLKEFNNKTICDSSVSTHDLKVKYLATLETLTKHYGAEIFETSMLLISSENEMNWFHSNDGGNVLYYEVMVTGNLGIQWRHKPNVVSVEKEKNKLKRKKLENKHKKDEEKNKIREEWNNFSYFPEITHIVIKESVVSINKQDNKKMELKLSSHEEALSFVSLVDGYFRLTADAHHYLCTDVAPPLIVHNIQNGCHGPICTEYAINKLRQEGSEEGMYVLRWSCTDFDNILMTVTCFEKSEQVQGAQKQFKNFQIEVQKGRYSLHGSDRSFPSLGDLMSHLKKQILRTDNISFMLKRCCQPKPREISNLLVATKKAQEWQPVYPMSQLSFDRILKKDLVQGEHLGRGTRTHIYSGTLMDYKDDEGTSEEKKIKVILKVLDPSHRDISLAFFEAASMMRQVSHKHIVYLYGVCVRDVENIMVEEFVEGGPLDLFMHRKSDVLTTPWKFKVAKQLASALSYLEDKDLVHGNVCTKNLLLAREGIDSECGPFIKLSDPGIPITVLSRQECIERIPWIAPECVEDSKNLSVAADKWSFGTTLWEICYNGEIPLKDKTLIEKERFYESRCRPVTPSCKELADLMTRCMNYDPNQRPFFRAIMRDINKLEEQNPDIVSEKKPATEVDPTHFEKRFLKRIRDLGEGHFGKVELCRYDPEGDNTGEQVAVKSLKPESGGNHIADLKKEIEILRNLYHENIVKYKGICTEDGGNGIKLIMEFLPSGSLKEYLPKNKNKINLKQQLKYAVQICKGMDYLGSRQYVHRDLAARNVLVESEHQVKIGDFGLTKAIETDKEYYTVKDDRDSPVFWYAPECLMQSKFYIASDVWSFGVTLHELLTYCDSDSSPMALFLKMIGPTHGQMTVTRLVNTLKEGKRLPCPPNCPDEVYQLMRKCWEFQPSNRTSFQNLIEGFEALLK
# Procedure, shortened: as §1
Structure (SMILES),IC50 [1],AMPKa1 or AMPKa2 Inhibition % at indicated screening concentration (AMPKa1 or AMPKa2; screening concentration 1 μM),inhibition at 1 µM (AurA),AurB or AurC Inhibition % at indicated screening concentration (AurB or AurC; screening concentration 1 μM),inhibition at 10 µM [2],inhibition at 1 µM (JAK1),AMPKa1 or AMPKa2 Inhibition % at indicated screening concentration (AMPKa1 or AMPKa2; screening concentration 10 μM),inhibition at 10 µM (AurA; screening concentration 10 μM),AurB or AurC Inhibition % at indicated screening concentration (AurB or AurC; screening concentration 10 μM),IC50 [2],inhibition at 10 µM (JAK1; screening concentration 10 μM)
CCOc1cc(C(=O)N2CC[C@@H](NCCF)C2)ccc1Nc1cc2c(cn1)N(C)C(=O)c1ccccc1N2C [Compound T9],20 to 50 nM,E (E is ≦35%),≤ 35%,E (E is ≦35%),70 to 85%,≤ 35%,–,–,–,–,–
CCOc1cc(C(=O)N2CCC(N3CC[C@H](O)C3)CC2)ccc1Nc1cc2c(cn1)N(C)C(=O)c1ccccc1N2C [Compound T11],20 to 50 nM,E (E is ≦35%),≤ 35%,E (E is ≦35%),> 85%,≤ 35%,–,–,–,–,–
CN1CCN(C2CCN(C(=O)c3ccc(Nc4cc5c(cn4)N(C)C(=O)c4ccccc4N5C)c(OCCF)c3)CC2)CC1 [Compound T34],< 20 nM,E (E is ≦35%),≤ 35%,E (E is ≦35%),70 to 85%,≤ 35%,–,–,–,–,–

# Results, then the compound that gave them:
IC50 [1],AMPKa1 or AMPKa2 Inhibition % at indicated screening concentration (AMPKa1 or AMPKa2; screening concentration 1 μM),inhibition at 1 µM (AurA),AurB or AurC Inhibition % at indicated screening concentration (AurB or AurC; screening concentration 1 μM),inhibition at 10 µM [2],inhibition at 1 µM (JAK1),AMPKa1 or AMPKa2 Inhibition % at indicated screening concentration (AMPKa1 or AMPKa2; screening concentration 10 μM),inhibition at 10 µM (AurA; screening concentration 10 μM),AurB or AurC Inhibition % at indicated screening concentration (AurB or AurC; screening concentration 10 μM),IC50 [2],inhibition at 10 µM (JAK1; screening concentration 10 μM),Structure (SMILES)
50 to 200 nM,E (E is ≦35%),≤ 35%,E (E is ≦35%),> 85%,≤ 35%,–,–,–,–,–,CC(C)Oc1cc(C(=O)N2CCN(C3CCN(C)CC3)CC2)ccc1Nc1cc2c(cn1)N(C)C(=O)c1ccccc1N2C [Compound T49]
20 to 50 nM,–,–,–,–,–,E (E is ≦35%),≤ 35%,E (E is ≦35%),2000 to 5000 nM,≤ 35%,CCOc1cc(C(=O)N2CCN(C3CCN(C)CC3)CC2)ccc1Nc1cc2c(cn1)N(C)C(=O)c1ccccc1O2 [Compound T98]
> 200 nM,E (E is ≦35%),≤ 35%,E (E is ≦35%),70 to 85%,≤ 35%,–,–,–,–,–,CCOc1cc(C(=O)N[C@H]2CC[C@H](O)CC2)ccc1Nc1cc2c(cn1)N(C)C(=O)c1ccccc1N2C [Compound T62]
